This note sets out measurements from patent publication US6632817B2, “Fluoromethoximino compounds” (priority 1997, dated 2003).

In general, chromatographic logP refers to a lipophilicity value derived from retention on a column. The low end stands for lower lipophilicity, the high end for higher lipophilicity.

Each structure is given as a SMILES string.

In the first data set the test system is Plasmopara viticola. Nature of the data set: Plasmopara test (grapevine)/protective. The format is in vivo. Particulars: Plasmopara viticola, 144 h, protective, application rate 100 g/ha, evaluation 6 days after inoculation, read-out: Efficacy in %. The method, then: Plasmopara Test (Grapevine)/Protective
(§1) Solvent: 47 parts by weight of acetone
(§2) Emulsifier: 3 parts by weight of alkylaryl polyglycol ether
(§3) To produce a suitable preparation of active compound, 1 part by weight of active compound is mixed with the stated amounts of solvent and emulsifier, and the concentrate is diluted with water to the desired concentration.
To test for protective activity, young plants are sprayed with the preparation of active compound at the stated application rate. After the spray coating has dried on, the plants are inoculated with an aqueous spore suspension of Plasmopara viticola and then remain in an incubation cabin at approximately 20° C. and 100% relative atmospheric humidity for 1 day. The plants are subsequently placed in a greenhouse at approximately 21° C. and approximately 90% relative atmospheric humidity for 5 days. The plants are then moistened and placed in an incubation cabin for 1 day.
Evaluation is carried out 6 days after the inoculation. 0% means an efficacy which corresponds to that of the control, whereas an efficacy of 100% means that no infection is observed.
As to `CNC(=O)C(=NOCF)c1ccccc1Oc1nc(-c2ccccc2)ns1` [Example 3, 2-fluoromethoxyimino-N-methyl-2-[2-(3-phenyl-[1,2,4]thiadiazol-5-yloxy)-phenyl]-acetamide], the pest or weed control at 100 g/ha is not below 98%. On the same count and under the same terms, as for `CNC(=O)/C(=N\OCF)c1ccccc1Oc1ncnc(Oc2cccc(C)c2Cl)c1F` [Example 27], the figure is not below 98%; as for `CNC(=O)C(NOCF)c1ccccc1Oc1ncnc(Oc2ccccc2)c1F` (centres unmarked) [drawing 57], 100%. Same read-out and setting: as for `CNC(=O)C(NOCF)c1ccccc1Oc1ncnc(Oc2ccccc2[N+](=O)[O-])c1F` (centres unmarked) [drawing 58], the figure is 96%.

For the compound `CNC(=O)/C(=N\OCF)c1ccccc1Oc1ncnc(Oc2ccccc2Cl)c1F` [drawing 64], the pest or weed control at 100 g/ha was 100%. Turning to `CNC(=O)/C(=N\OCF)c1ccccc1Oc1nc(-c2cccc(OC(F)F)c2)ns1` [drawing 65], the pest or weed control at 100 g/ha was found to be 99%.

The same data set, now with this note: protective, application rate 100 g/ha, evaluation 6 days after inoculation.
For the compound `COC(=O)C(=NOCF)c1ccccc1Oc1ncnc(Oc2ccccc2Cl)c1F` [drawing 50], the Efficacy in % was determined as 98%.

`CNC(=O)C(=NOCF)c1ccccc1Oc1ncnc(Oc2ccccc2Cl)c1F` [drawing 51] came in with an Efficacy in % of 100%.

In the case of `CNC(=O)/C(=N\OCF)c1ccccc1Oc1ncnc(Oc2ccccc2C)c1F` [drawing 52], the Efficacy in % is 100%.

With `CNC(=O)/C(=N\OCF)c1ccccc1Oc1ncnc(Oc2cccc(Cl)c2C)c1F` [drawing 53], the Efficacy in % is listed as 100%. In the case of `CNC(=O)/C(=N\OCF)c1ccccc1Oc1nc(-c2cccc(OC(F)(F)F)c2)ns1` [drawing 54], the Efficacy in % is 100%. Still for that read-out and setting: as for `CNC(=O)C(=NOCF)c1ccccc1Oc1nc(-c2ccccc2)ns1` [drawing 55], the figure is 100%; as for `CNC(=O)/C(=N\OCF)c1ccccc1Oc1ncnc(Oc2ccccc2OC(F)F)c1F` [drawing 56], 96%. The compound `CNC(=O)/C(=N\OCF)c1ccccc1Oc1ncnc(Oc2cccc(C)c2C)c1F` [drawing 59] returned an Efficacy in % of 100%. The same measure, in the same setting: as for `CNC(=O)/C(=N\OCF)c1ccccc1Oc1ncnc(Oc2ccccc2C#N)c1F` [drawing 60], the figure is 96%. As for `CNC(=O)/C(=N\OCF)c1ccccc1Oc1nc(-c2ccc(C(F)(F)F)cc2)ns1` [drawing 61], the Efficacy in % is reported as 100%.

Take `CNC(=O)/C(=N\OCF)c1ccccc1Oc1nc(-c2cccc(C(F)(F)F)c2)ns1` [drawing 62]: the Efficacy in % turned out to be 100%. For the compound `CNC(=O)/C(=N\OCF)c1ccccc1Oc1nc(-c2ccc(OC(F)(F)F)cc2)ns1` [drawing 63], the Efficacy in % worked out at 100%. In the case of `CNC(=O)/C(=N\OCF)c1ccccc1Oc1nc(-c2ccc(OC(F)F)cc2)ns1` [drawing 66], the Efficacy in % was found to be 100%. In turn, `CNC(=O)/C(=N\OCF)c1ccccc1Oc1ncnc(Oc2cccc(C)c2Cl)c1F` [drawing 67] returned an Efficacy in % of 100%.

The next data set relates to Venturia inaequalis. Nature of the data set: Venturia test (apple)/protective. The format is in vivo. Particulars: Venturia inaequalis, 288 h, protective, application rate 10 g/ha, evaluation 12 days after inoculation, read-out: Efficacy in %. The method, then:
Venturia Test (Apple)/Protective
as §1, §2, §3
To test for protective activity, young plants are sprayed with the preparation of active compound at the stated application rate. After the spray coating has dried on, the plants are inoculated with an aqueous conidia suspension of the causative organism of apple scab Venturia inaequalis and then remain in an incubation cabin at approximately 20° C. and 100% relative atmospheric humidity for 1 day.
The plants are then placed in a greenhouse at approximately 21° C. and a relative atmospheric humidity of approximately 90%.
Evaluation is carried out 12 days after the inoculation. 0% means an efficacy which corresponds to that of the control, whereas an efficacy of 100% means that no infection is observed.
On to `CNC(=O)C(=NOCF)c1ccccc1Oc1nc(-c2ccccc2)ns1` [Example 3, 2-fluoromethoxyimino-N-methyl-2-[2-(3-phenyl-[1,2,4]thiadiazol-5-yloxy)-phenyl]-acetamide], for which the pest or weed control at 10 g/ha is not below 99%. Still for that read-out and setting: as for `CNC(=O)C(NOCF)c1ccccc1Oc1ncnc(Oc2cccc(Cl)c2Cl)c1F` (centres unmarked) [drawing 71], the figure is 96%; as for `CNC(=O)C(NOCF)c1ccccc1Oc1ncnc(Oc2ccccc2)c1F` (centres unmarked) [drawing 73], 96%. As for `CNC(=O)/C(=N\OCF)c1ccccc1Oc1ncnc(Oc2ccccc2Cl)c1F` [drawing 81], the pest or weed control at 10 g/ha was determined as 100%.

`CNC(=O)/C(=N\OCF)c1ccccc1Oc1nc(-c2cccc(OC(F)F)c2)ns1` [drawing 82]: the pest or weed control at 10 g/ha worked out at 100%.

Still in this data set, the particulars now being: Venturia inaequalis, 288 h, protective, application rate 19 g/ha, evaluation 12 days after inoculation, read-out: Efficacy in %.
On to `CNC(=O)/C(=N\OCF)c1ccccc1Oc1nc(-c2ccc(C(F)(F)F)cc2)ns1` [drawing 78], for which the pest or weed control at 19 g/ha was found to be 100%.

The data set is the same for the next values; noted with them: protective, application rate 10 g/ha, evaluation 12 days after inoculation.
Compound `COC(=O)C(=NOCF)c1ccccc1Oc1ncnc(Oc2ccccc2Cl)c1F` [drawing 68] gave an Efficacy in % of 100%. The same measure, in the same setting: the value for `CNC(=O)C(=NOCF)c1ccccc1Oc1ncnc(Oc2ccccc2Cl)c1F` [drawing 69] was 99%. The same measure, in the same setting: as for `CNC(=O)C(=NOCF)c1ccccc1Oc1nc(-c2ccccc2)ns1` [drawing 70], the figure is 100%; as for `CNC(=O)/C(=N\OCF)c1ccccc1Oc1ncnc(Oc2ccccc2OC(F)F)c1F` [drawing 72], 95%.

For `CNC(=O)/C(=N\OCF)c1ccccc1Oc1ncnc(Oc2cccc(C)c2C)c1F` [drawing 74], the Efficacy in % was determined as 100%. The same measure, in the same setting: as for `CNC(=O)/C(=N\OCF)c1ccccc1Oc1ncnc(Oc2ccccc2C)c1F` [drawing 75], the figure is 100%; as for `CNC(=O)/C(=N\OCF)c1ccccc1Oc1ncnc(Oc2cccc(Cl)c2C)c1F` [drawing 76], 98%; as for `CNC(=O)/C(=N\OCF)c1ccccc1Oc1nc(-c2cccc(OC(F)(F)F)c2)ns1` [drawing 77], 100%. The same measure, in the same setting: the value for `CNC(=O)/C(=N\OCF)c1ccccc1Oc1nc(-c2cccc(C(F)(F)F)c2)ns1` [drawing 79] was 100%. On the same count and under the same terms, the value for `CNC(=O)/C(=N\OCF)c1ccccc1Oc1nc(-c2ccc(OC(F)(F)F)cc2)ns1` [drawing 80] was 100%.

`CNC(=O)/C(=N\OCF)c1ccccc1Oc1nc(-c2ccc(OC(F)F)cc2)ns1` [drawing 83] had an Efficacy in % of 99%.

The next data set concerns Puccinia recondita. The experiment in a line: Puccinia test (wheat)/protective. The class given is in vivo. Particulars: Puccinia recondita, 240 h, protective, application rate 250 g/ha, evaluation 10 days after inoculation, read-out: Efficacy in %. Here is the method:
Puccinia Test (Wheat)/Protective
Solvent: 25 parts by weight of N,N-dimethylacetamide
Emulsifier: 0.6 part by weight of alkylaryl polyglycol ether
as §3
To test for protective activity, young plants are sprayed with the preparation of active compound at the stated application rate. After the spray coating has dried on, the plants are sprayed with a conidia suspension of Puccinia recondita. The plants remain in an incubation cabin at 20° C. and 100% relative atmospheric humidity for 48 hours.
The plants are then placed in a greenhouse at a temperature of approximately 20° C. and a relative atmospheric humidity of 80% to promote the development of rust pustules.
Evaluation is carried out 10 days after the inoculation. 0% means an efficacy which corresponds to that of the control, whereas an efficacy of 100% means that no infection is observed.
Take `CNC(=O)C(NOCF)c1ccccc1Oc1ncnc(Oc2cccc(Cl)c2Cl)c1F` (centres unmarked) [drawing 86]: the pest or weed control at 250 g/ha was 100%. The same measure, in the same setting: as for `CNC(=O)C(NOCF)c1ccccc1Oc1ncnc(Oc2ccccc2)c1F` (centres unmarked) [drawing 88], the figure is 100%; as for `CNC(=O)C(NOCF)c1ccccc1Oc1ncnc(Oc2ccccc2[N+](=O)[O-])c1F` (centres unmarked) [drawing 89], 100%. Still for that read-out and setting: as for `CNC(=O)/C(=N\OCF)c1ccccc1Oc1ncnc(Oc2ccccc2Cl)c1F` [drawing 96], the figure is 100%.

Still in this data set, the particulars now being: protective, application rate 250 g/ha, evaluation 10 days after inoculation.
`COC(=O)C(=NOCF)c1ccccc1Oc1ncnc(Oc2ccccc2Cl)c1F` [drawing 84] came in with an Efficacy in % of 80%. Still for that read-out and setting: as for `CNC(=O)C(=NOCF)c1ccccc1Oc1ncnc(Oc2ccccc2Cl)c1F` [drawing 85], the figure is 100%; as for `CNC(=O)/C(=N\OCF)c1ccccc1Oc1ncnc(Oc2ccccc2OC(F)F)c1F` [drawing 87], 100%. Still for that read-out and setting: the value for `CNC(=O)/C(=N\OCF)c1ccccc1Oc1ncnc(Oc2cccc(C)c2C)c1F` [drawing 90] was 100%.

The compound `CNC(=O)/C(=N\OCF)c1ccccc1Oc1ncnc(Oc2ccccc2C#N)c1F` [drawing 91] registered an Efficacy in % of 100%. `CNC(=O)/C(=N\OCF)c1ccccc1Oc1ncnc(Oc2ccccc2C)c1F` [drawing 92] displayed an Efficacy in % of 100%. Same read-out and setting: as for `CNC(=O)/C(=N\OCF)c1ccccc1Oc1nc(-c2ccc(C(F)(F)F)cc2)ns1` [drawing 93], the figure is 100%.

The compound `CNC(=O)/C(=N\OCF)c1ccccc1Oc1nc(-c2cccc(C(F)(F)F)c2)ns1` [drawing 94] had an Efficacy in % of 100%. On the same count and under the same terms, the value for `CNC(=O)/C(=N\OCF)c1ccccc1Oc1nc(-c2ccc(OC(F)(F)F)cc2)ns1` [drawing 95] was 100%. Same read-out and setting: as for `CNC(=O)/C(=N\OCF)c1ccccc1Oc1nc(-c2ccc(OC(F)F)cc2)ns1` [drawing 97], the figure is 100%.

System in the next data set: not listed separately
Nature of the data set: logP determination by HPLC (EEC Directive 79/831 Annex V. A8). The class given is physicochemical. The settings on record: HPLC gradient method, acetonitrile/0.1% aqueous phosphoric acid. The method, then:
The logP values are determined in accordance with EEC Directive 79/831 Annex V. A8 by HPLC (gradient method, acetonitrile/0.1% aqueous phosphoric acid).
With `CNC(=O)C(=NOCF)c1ccccc1Oc1nc(-c2ccccc2)ns1` [Example 3, 2-fluoromethoxyimino-N-methyl-2-[2-(3-phenyl-[1,2,4]thiadiazol-5-yloxy)-phenyl]-acetamide], the chromatographic logP worked out at 2.9. Regarding `CNC(=O)/C(=N\OCF)c1ccccc1Oc1ncnc(Oc2cccc(C)c2Cl)c1F` [Example 27], the chromatographic logP came to 3.32. The compound `COC(=O)C(=NOCF)c1ccccc1O` [Example (II-1), methyl 2-fluoromethoxyimino-2-(2-hydroxyphenyl)-acetate] returned a chromatographic logP of 1.6. `CNC(=O)C(=NOCF)c1ccccc1O` [Example (II-2), 2-fluoromethoxyimino-2-(2-hydroxyphenyl)-N-methylacetamide]: the chromatographic logP stood at 1.1.

As to `COC(=O)C(=NOCF)c1ccccc1OC1CCCCO1` (centres unmarked) [Example (VI-1), methyl 2-fluoromethoxyimino-2-[2-(tetrahydropyran-2-yloxy)-phenyl]-acetate], the chromatographic logP turned out to be 2.8.
